{
  "source": "paper PMC11969009",
  "about": "(Nature Communications, 2025)",
  "key": {"SARS-CoV-2 P21": {"tested_on": "SARS-CoV-2 P21", "parameters": "species or system C57BL/6 (WT) mice", "conditions": "mouse, in vivo"}, "[1]": {"tested_on": "SARS-CoV-2 clinical isolate VIC001", "experiment": "microbe, parasite or virus in culture", "assay_type": "cell-based"}, "MERS-CoV PLpro": {"biological_target": "MERS-CoV PLpro (Middle East respiratory syndrome-related coronavirus, UniProt K9N7C7)", "sequence (K9N7C7 1482-1803 limits assumed)": "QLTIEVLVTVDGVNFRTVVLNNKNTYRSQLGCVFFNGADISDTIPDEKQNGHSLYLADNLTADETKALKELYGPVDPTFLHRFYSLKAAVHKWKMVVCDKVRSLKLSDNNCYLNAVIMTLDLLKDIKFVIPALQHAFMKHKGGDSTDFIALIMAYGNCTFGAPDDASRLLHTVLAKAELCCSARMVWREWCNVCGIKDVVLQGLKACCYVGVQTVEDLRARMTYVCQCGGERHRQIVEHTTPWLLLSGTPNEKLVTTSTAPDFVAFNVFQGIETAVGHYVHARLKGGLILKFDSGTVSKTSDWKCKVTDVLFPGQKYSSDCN", "assay_type": "biochemical", "parameters": "unit: %"}, "HKU1 PLpro": {"biological_target": "HKU1 PLpro (Human coronavirus HKU1, UniProt P0C6X2)", "sequence (P0C6X2 1648-1958 limits assumed)": "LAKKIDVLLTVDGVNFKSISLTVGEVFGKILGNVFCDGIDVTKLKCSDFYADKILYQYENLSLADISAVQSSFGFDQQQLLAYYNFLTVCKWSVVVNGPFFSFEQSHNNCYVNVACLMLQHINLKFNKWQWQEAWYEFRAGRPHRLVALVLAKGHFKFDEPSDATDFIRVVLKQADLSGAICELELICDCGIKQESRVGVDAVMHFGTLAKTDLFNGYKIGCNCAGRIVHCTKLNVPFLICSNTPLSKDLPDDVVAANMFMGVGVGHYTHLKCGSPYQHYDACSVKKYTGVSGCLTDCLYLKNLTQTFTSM", "experiment": "biochemical", "assay_type": "biochemical", "parameters": "inhibition of HKU1 PLpro, UbRh dose-response replicate value: unit: %"}, "SARS-CoV PLpro": {"biological_target": "SARS-CoV PLpro (Severe acute respiratory syndrome coronavirus, UniProt P0C6X7)", "experiment": "biochemical", "parameters": "inhibition of SARS-CoV PLpro, UbRh dose-response replicate value: unit: %"}, "NL63 PL2pro": {"biological_target": "NL63 PL2pro (Human coronavirus NL63, UniProt P0C6X5)", "sequence (P0C6X5 1578-1876 limits assumed)": "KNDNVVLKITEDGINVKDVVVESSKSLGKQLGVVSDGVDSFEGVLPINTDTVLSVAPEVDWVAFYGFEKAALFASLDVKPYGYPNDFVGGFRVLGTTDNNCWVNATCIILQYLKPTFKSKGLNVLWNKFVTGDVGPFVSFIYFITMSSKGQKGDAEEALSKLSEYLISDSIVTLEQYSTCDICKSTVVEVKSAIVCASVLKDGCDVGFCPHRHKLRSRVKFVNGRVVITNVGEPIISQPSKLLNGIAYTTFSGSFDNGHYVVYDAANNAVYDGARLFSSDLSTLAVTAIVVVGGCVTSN", "experiment": "biochemical", "parameters": "inhibition of NL63 PL2pro, UbRh dose-response replicate value: unit: %"}, "SARS-CoV-2 PLpro": {"biological_target": "SARS-CoV-2 PLpro (Severe acute respiratory syndrome coronavirus 2, UniProt P0DTD1)", "experiment": "biochemical"}, "USP21": {"biological_target": "USP21 (Homo sapiens, UniProt Q9UK80)", "sequence (Q9UK80 whole entry)": "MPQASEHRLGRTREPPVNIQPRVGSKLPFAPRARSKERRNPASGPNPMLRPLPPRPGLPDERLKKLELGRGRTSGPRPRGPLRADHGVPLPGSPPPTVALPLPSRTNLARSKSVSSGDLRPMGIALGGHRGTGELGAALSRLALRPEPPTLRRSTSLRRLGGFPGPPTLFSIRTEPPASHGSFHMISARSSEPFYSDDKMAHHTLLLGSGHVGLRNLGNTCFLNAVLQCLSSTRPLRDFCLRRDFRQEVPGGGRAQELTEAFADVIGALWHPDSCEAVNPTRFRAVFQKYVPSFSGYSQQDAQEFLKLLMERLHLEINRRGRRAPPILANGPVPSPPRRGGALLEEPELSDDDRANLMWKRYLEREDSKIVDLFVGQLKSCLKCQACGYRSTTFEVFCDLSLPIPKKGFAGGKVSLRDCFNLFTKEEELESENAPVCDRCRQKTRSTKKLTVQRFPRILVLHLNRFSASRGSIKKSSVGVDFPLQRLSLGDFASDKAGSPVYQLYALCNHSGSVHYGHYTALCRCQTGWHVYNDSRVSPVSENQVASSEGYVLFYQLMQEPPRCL", "assay_type": "biochemical"}, "OC43 PLpro": {"biological_target": "OC43 PLpro (Human coronavirus OC43, UniProt P0C6X6)", "sequence (P0C6X6 1561-1872 limits assumed)": "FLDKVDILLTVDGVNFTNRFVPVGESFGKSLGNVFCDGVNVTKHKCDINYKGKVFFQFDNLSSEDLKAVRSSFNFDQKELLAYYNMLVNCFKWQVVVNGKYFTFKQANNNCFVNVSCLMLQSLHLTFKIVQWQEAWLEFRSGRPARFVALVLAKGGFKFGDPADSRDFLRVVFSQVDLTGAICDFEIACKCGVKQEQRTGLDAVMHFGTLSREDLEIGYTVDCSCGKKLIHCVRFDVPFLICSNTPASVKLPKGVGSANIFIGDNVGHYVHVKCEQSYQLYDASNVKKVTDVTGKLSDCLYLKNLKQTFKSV", "assay_type": "biochemical", "parameters": "unit not given here"}, "229E PL2pro": {"biological_target": "229E PL2pro (Human coronavirus 229E, UniProt P0C6X1)", "sequence (P0C6X1 1599-1905 limits assumed)": "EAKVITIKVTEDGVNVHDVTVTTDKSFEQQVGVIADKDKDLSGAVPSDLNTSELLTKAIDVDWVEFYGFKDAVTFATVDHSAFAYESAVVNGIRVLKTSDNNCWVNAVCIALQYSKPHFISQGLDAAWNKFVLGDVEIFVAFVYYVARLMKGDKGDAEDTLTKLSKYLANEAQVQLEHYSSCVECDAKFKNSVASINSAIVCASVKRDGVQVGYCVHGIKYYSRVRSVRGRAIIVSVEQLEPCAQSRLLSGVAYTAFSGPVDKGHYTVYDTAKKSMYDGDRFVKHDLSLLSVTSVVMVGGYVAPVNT", "experiment": "biochemical", "parameters": "inhibition of 229E PL2pro, UbRh dose-response replicate value: unit: %"}},
  "note": "Several values for one entry are separate records, joined by “and”; a condition that tells them apart may be missing. Equal values may be shown once. Read-outs that look alike come from different tables or passages of the source.",
  "data": [
    {"compound": "CCO/N=C(/c1ccc2cc(OC)ccc2c1)[C@@H]1CCCN([C@H]2CC[C@@H](O)CC2)C1", "note": "[P8-100]", "values": [
      {"measurement": "Log2 Fold change IL-4", "setting": "SARS-CoV-2 P21", "result": -0.18},
      {"measurement": "Log2 Fold change IL-9", "setting": "SARS-CoV-2 P21", "result": -6.78}
    ]},
    {"compound": "CCO/N=C(/c1ccc2cc(OC)ccc2c1)[C@@H]1CCCN([C@H]2CC[C@@H](O)CC2)C1", "note": "[P8-150]", "values": [
      {"measurement": "Log2 Fold change IL-12p70", "setting": "SARS-CoV-2 P21", "result": -2.36}
    ]},
    {"compound": "CO/N=C(/c1ccc2cc(OC)ccc2c1)[C@@H]1CCCN([C@H]2CC[C@@H](O)CC2)C1", "note": "[WEHI P4]", "values": [
      {"measurement": "Ext Data Fig 2f dose response (0 µM = 100)", "setting": "[1]; concentration 0.01 µM", "result": "109.2308 and 92.5900 and 114.0845 and 104.0541 and 89.7436"},
      {"measurement": "Ext Data Fig 2f dose response (0 µM = 100)", "setting": "[1]; concentration 0.02 µM", "result": "101.5385 and 95.0600 and 95.7746 and 97.2973 and 106.4103"},
      {"measurement": "Ext Data Fig 2f dose response (0 µM = 100)", "setting": "[1]; concentration 0.04 µM", "result": "107.6923 and 74.0700 and 95.7746 and 91.8919 and 82.0513"},
      {"measurement": "Ext Data Fig 2f dose response (0 µM = 100)", "setting": "[1]; concentration 0.08 µM", "result": "93.8462 and 80.2500 and 109.8592 and 101.3514 and 93.5897"},
      {"measurement": "Ext Data Fig 2f dose response (0 µM = 100)", "setting": "[1]; concentration 5 µM", "result": 0.0000}
    ]},
    {"compound": "CO/N=C(/c1ccc2cc(OC)ccc2c1)[C@@H]1CCCN([C@H]2CC[C@@H](c3cc[nH]n3)CC2)C1", "note": "[WEHI-P70]", "values": [
      {"measurement": "inhibition of MERS-CoV PLpro, UbRh dose-response replicate value", "setting": "MERS-CoV PLpro", "result": "-8.262 and -6.812 and -8.29 and -8.637 and -10.7207 and -11.1211 and -8.564 and -8.857"},
      {"measurement": "inhibition of MERS-CoV PLpro, UbRh dose-response replicate value", "setting": "MERS-CoV PLpro; Conc 98 µM", "result": "-10.7242 and -11.7377 and -6.2046 and -4.979"},
      {"measurement": "inhibition of HKU1 PLpro, UbRh dose-response replicate value", "setting": "HKU1 PLpro", "result": "-6.039 and -6.635 and 8.689 and -11.8697 and -9.542 and -8.165 and -7.3684 and -16.402"},
      {"measurement": "inhibition of HKU1 PLpro, UbRh dose-response replicate value", "setting": "HKU1 PLpro; Conc 98 µM", "result": "-3.115 and -4.878 and -6.077 and -8.873"},
      {"measurement": "IC50", "setting": "SARS-CoV PLpro", "result": 94, "unit": "nM"},
      {"measurement": "inhibition of SARS-CoV PLpro, UbRh dose-response replicate value", "setting": "SARS-CoV PLpro", "result": "98.7016 and 99.911 and 99.674 and 98.9699 and 100.405 and 100.228"},
      {"measurement": "SARS-CoV PLpro, UbRh hCoV Pan Activity dose-response", "setting": "SARS-CoV PLpro; Conc 0.0149 µM", "result": "11.412 and 10.2397 and 10.016 and 11.8574"},
      {"measurement": "SARS-CoV PLpro, UbRh hCoV Pan Activity dose-response", "setting": "SARS-CoV PLpro; Conc 0.0448 µM", "result": "31.6247 and 32.2323 and 27.9576 and 29.7371"},
      {"measurement": "SARS-CoV PLpro, UbRh hCoV Pan Activity dose-response", "setting": "SARS-CoV PLpro; Conc 3.63 µM", "result": "97.8161 and 97.4695 and 97.9055 and 98.3366"},
      {"measurement": "inhibition of SARS-CoV PLpro, UbRh dose-response replicate value", "setting": "SARS-CoV PLpro; Conc 98 µM", "result": "99.4348 and 99.7657 and 100.125"},
      {"measurement": "inhibition at 98 µM", "setting": "SARS-CoV PLpro; Conc 98 µM, read-out: inhibition of SARS-CoV PLpro, UbRh dose-response replicate value", "result": 98.6, "unit": "%"},
      {"measurement": "inhibition at […]", "setting": "SARS-CoV PLpro; read-out: inhibition of SARS-CoV PLpro, UbRh dose-response replicate value", "result": 99.4, "unit": "%"},
      {"measurement": "IC50", "setting": "NL63 PL2pro", "result": 648, "unit": "nM"},
      {"measurement": "inhibition of NL63 PL2pro, UbRh dose-response replicate value", "setting": "NL63 PL2pro", "result": "96.5311 and 98.0786 and 97.1472 and 94.6147 and 95.7019 and 95.1407"},
      {"measurement": "NL63 PL2pro, UbRh hCoV Pan Activity dose-response", "setting": "NL63 PL2pro; Conc 3.63 µM", "result": "86.4411 and 86.623 and 87.2454 and 84.6973"},
      {"measurement": "inhibition of NL63 PL2pro, UbRh dose-response replicate value", "setting": "NL63 PL2pro; Conc 98 µM", "result": "98.2213 and 99.4112 and 98.0123"},
      {"measurement": "inhibition at 98 µM", "setting": "NL63 PL2pro; Conc 98 µM, read-out: inhibition of NL63 PL2pro, UbRh dose-response replicate value", "result": 98.4, "unit": "%"},
      {"measurement": "inhibition at […]", "setting": "NL63 PL2pro; read-out: inhibition of NL63 PL2pro, UbRh dose-response replicate value", "result": "97.7% and 95.1%"},
      {"measurement": "inhibition at 0.545 µM", "setting": "SARS-CoV-2 PLpro; Conc 0.545 µM, read-out: SARS-CoV-2 PLpro, UbRh dose-response", "result": 87.3, "unit": "%"},
      {"measurement": "inhibition at 1.63 µM", "setting": "SARS-CoV-2 PLpro; Conc 1.63 µM, read-out: SARS-CoV-2 PLpro, UbRh dose-response", "result": 96.4, "unit": "%"},
      {"measurement": "inhibition at 4.9 µM", "setting": "SARS-CoV-2 PLpro; Conc 4.9 µM, read-out: SARS-CoV-2 PLpro, UbRh dose-response", "result": 102, "unit": "%"},
      {"measurement": "IC50", "setting": "SARS-CoV-2 PLpro; IC50 (UbRh) SARS-CoV-2 PLpro", "result": 98, "unit": "nM"},
      {"measurement": "inhibition at […]", "setting": "SARS-CoV-2 PLpro; read-out: SARS-CoV-2 PLpro, UbRh dose-response", "result": "65.3% and 28.1%"},
      {"measurement": "selectivity over USP21", "setting": "USP21", "result": "selective over USP21"},
      {"measurement": "inhibition of OC43 PLpro, UbRh dose-response replicate value", "setting": "OC43 PLpro", "result": "-10.4521 and -4.6612 and -0.2116 and -6.41 and -12.4786 and -1.279 and -4.6859"},
      {"measurement": "inhibition of OC43 PLpro, UbRh dose-response replicate value", "setting": "OC43 PLpro; Conc 98 µM", "result": "-8.82 and -6.432 and -0.556 and -3.797"},
      {"measurement": "IC50", "setting": "229E PL2pro", "result": 26000, "unit": "nM"},
      {"measurement": "inhibition of 229E PL2pro, UbRh dose-response replicate value", "setting": "229E PL2pro", "result": "46.2136 and 48.684 and 48.4508 and 18.0648 and 22.1853 and 20.9697"},
      {"measurement": "inhibition of 229E PL2pro, UbRh dose-response replicate value", "setting": "229E PL2pro; Conc 98 µM", "result": "70.621 and 72.3972 and 73.3316"},
      {"measurement": "inhibition at […]", "setting": "229E PL2pro; read-out: inhibition of 229E PL2pro, UbRh dose-response replicate value", "result": "44.4% and 18.9%"},
      {"measurement": "inhibition at 98 µM", "setting": "229E PL2pro; read-out: inhibition of 229E PL2pro, UbRh dose-response replicate value, Conc 98 µM", "result": 71.9, "unit": "%"}
    ]}
  ]
}
